Measured values published in patent US8236792B2, “Substituted pyrrolidine amides as modulators of the histamine H3 receptor” (Janssen Pharmaceutica NV, priority 2008, dated 2012).
pKi: −log10 of the molar value. Like-named read-outs stand apart in the source and are kept apart here.

Key:
human H3 receptor [1] = biological target: T1, human H3 receptor (Homo sapiens, UniProt Q9Y5N1); test: Cyclic AMP Accumulation (human H3 reporter subline); type: cell-based; parameters: expressed in transfected cells; host or cells: SK-N-MC sublines with a reporter construct; settings: SK-N-MC subline with reporter construct and human H3 receptor, free base or trifluoroacetate salt, average; for Kb: read-out: Human pA2 (converted)
Procedure: (§1) Sublines of SK-N-MC cells were created that expressed a reporter construct and either the human or rat H3 receptor. […] Compounds were tested in their free base or trifluoroacetate salt forms.

human H3 receptor [2] = biological target: T1, human H3 receptor; test: H3 Receptor Binding (Human) Method 2, [125I]-iodoproxyfan competitive radioligand binding; parameters: expressed in transfected cells
Procedure: SK-N-MC cells expressing the human H3 receptor were grown to confluence and tissue culture plates, washed with phosphate-buffered saline, and scraped into 50 mL tubes. After centrifugation, the supernatant was aspirated, and the pellets frozen and stored at −80° C. […] The homogenate was centrifuged at 25000×g for 25 min. […] Reactions were stopped by filtration through GF/B filter plates pre-soaked in 0.3% polyethylenimine and subsequently washed with Tris 50 mM, 5 mM EDTA buffer. Plates were dried for 1 h in a 55° C. oven. Scintillation fluid was added and the radioactivity was counted in a Packard TopCount. Non-specific binding to the H3 receptor was defined by radioactivity that was bound in the presence of 100 μM histamine.
(§2) Compounds were tested in their free base or hydrochloride salt forms.

rat H3 receptor = biological target: T2, rat H3 receptor (Rattus norvegicus, UniProt Q9QYN8); test: Cyclic AMP Accumulation (rat H3 reporter subline); type: cell-based; settings: SK-N-MC subline with reporter construct and rat H3 receptor; free base or trifluoroacetate salt; average; read-out: Rat pA2 (converted)
T2 construct: expressed in transfected cells; host or cells: SK-N-MC sublines with a reporter construct
Procedure: as §1

cloned rat H3 receptors = biological target: T3, cloned rat H3 receptors (Rattus norvegicus, UniProt Q9QYN8); test: H3 Receptor Binding (Rat)
T3 construct: expressed in transfected cells
Procedure: Compounds were tested for binding to cloned rat H3 receptors, stably expressed in SK-N-MC cells.
as §2

[3] = biological target: T4, cloned human H3 receptors (Homo sapiens, UniProt Q9Y5N1); test: H3 Receptor Binding (Human) Method 1; settings: receptor stably expressed in SK-N-MC cells, free base forms, average of results
T4 construct: expressed in transfected cells

[4] = receptor stably expressed in SK-N-MC cells, free base or hydrochloride salt, average of results, read-out: Rat H3 Ki

T2 sequence (Q9QYN8 whole entry): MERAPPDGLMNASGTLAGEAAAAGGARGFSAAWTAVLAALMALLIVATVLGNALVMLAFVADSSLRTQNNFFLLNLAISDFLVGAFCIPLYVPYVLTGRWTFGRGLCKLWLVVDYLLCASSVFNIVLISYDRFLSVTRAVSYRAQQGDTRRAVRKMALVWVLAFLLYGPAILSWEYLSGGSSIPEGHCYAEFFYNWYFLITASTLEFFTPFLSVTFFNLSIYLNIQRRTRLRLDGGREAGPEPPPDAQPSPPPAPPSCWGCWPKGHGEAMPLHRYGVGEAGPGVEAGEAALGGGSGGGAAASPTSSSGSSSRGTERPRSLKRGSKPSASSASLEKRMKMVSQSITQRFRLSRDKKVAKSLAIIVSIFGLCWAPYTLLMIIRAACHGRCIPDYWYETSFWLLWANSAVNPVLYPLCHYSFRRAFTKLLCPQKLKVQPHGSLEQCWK
T3 sequence (Q9QYN8 whole entry): as above
T1 sequence (Q9Y5N1 whole entry): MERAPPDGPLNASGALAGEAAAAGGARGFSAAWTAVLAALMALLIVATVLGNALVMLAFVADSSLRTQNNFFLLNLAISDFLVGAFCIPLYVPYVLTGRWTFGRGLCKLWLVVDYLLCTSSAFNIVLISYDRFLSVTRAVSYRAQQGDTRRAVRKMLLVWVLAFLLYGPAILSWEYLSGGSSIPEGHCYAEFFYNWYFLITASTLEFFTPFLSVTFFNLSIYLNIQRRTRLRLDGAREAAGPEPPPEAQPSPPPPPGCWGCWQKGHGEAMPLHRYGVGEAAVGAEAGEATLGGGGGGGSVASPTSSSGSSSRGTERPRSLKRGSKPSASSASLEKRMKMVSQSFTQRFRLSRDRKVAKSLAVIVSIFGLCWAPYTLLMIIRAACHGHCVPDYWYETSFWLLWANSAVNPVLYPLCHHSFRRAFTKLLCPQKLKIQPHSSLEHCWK
T4 sequence (Q9Y5N1 whole entry): as above

Compound	Kb (human H3 receptor [1])	pKi (human H3 receptor [2])	Kb (rat H3 receptor)	pKi (cloned rat H3 receptors)	pKi [3]	Human pA2 (human H3 receptor [1])	pKi (cloned rat H3 receptors; [4])
CSc1ccc(O[C@@H]2CN[C@@H](C(=O)N3CCCN(C4CCC4)CC3)C2)cc1 [Example 71, (2R,4S)-4-(4-Methylsulfanyl-Phenoxy)-2-(4-cyclobutyl-[1,4]diazepane-1-carbonyl)-pyrrolidine]	2.04 nM	8.52	10.7 nM	7.27	–	–	–
CSc1ccc(O[C@H]2CN[C@H](C(=O)N3CCCN(C4CCC4)CC3)C2)cc1 [Example 96, (2S,4R)-2-(4-Cyclobutyl-[1,4]diazepane-1-carbonyl)-4-(4-methylsulfanyl-phenoxy)-pyrrolidine]	20.9 nM	–	112 nM	7.08	7.96	–	–
O=C([C@H]1C[C@H](Oc2ccccc2)CN1)N1CCCN(C2CCC2)CC1 [Example 67, (2R,4S)-4-Phenoxy-2-(4-cyclobutyl-[1,4]diazepane-1-carbonyl)-pyrrolidine]	–	8.30	57.5 nM	–	–	8.09	6.30
Cc1cc(O[C@@H]2CN[C@@H](C(=O)N3CCCN(C4CCC4)CC3)C2)ccc1Cl [Example 72, (2R,4S)-4-(4-Chloro-3-methyl-phenoxy)-2-(4-cyclobutyl-[1,4]diazepane-1-carbonyl)-pyrrolidine]	1.02 nM	8.52	4.9 nM	–	–	–	7.44
